The source of these data is PMC12059926, “Development and Biological Assessment of Thiazole-Based Pyridines for Targeted Therapy in Lung Cancer” (ACS Omega, 2025).

Data set [1] has as its system L929 (mouse fibroblast cell line). Nature of the data set: MTT cytotoxicity assay on L929 healthy cells. Type of data set: cell-based. To be noted: mean ± SD. The procedure: (§1) The synthesized final compounds (2a–2o) were initially evaluated for their cytotoxic effects to assess their anticancer activity against A549 lung cancer cells. The healthy cell line L929 (mouse fibroblast cell line) was also used to determine the selective antiproliferative properties of the compounds.
(§2) The human lung cancer cell line A549 and mouse fibroblast cell line L929 were used to evaluate the cytotoxicity of the compounds. Cells propagated under the specified conditions were cultured in 96-well plates at 5 × 10^3 cells/well. […] At the end of the incubation period, cell viability was determined by measuring the absorbance of the purple color formed by the breakdown of the MTT dye at 540 nm. Half-maximal inhibitory concentrations (IC50) were determined based on the tested concentrations of the compounds. The tests were triplicated.[38] The MTT assay for cytotoxicity of compounds was determined according to previously published procedures.[39],[40]
(§3) The concentration that inhibits 50% of the cell population was calculated as IC50 using GraphPad Prism 9.0 statistical software program, and standard deviation values were analyzed. Data are expressed as mean ± SD. Comparisons were made using one-way ANOVA for continuous variables with normal distribution, and Tukey’s test was used for post hoc analysis of group differences. p < 0.05 was considered statistically significant.
(§4) The cell viability value of the control group was considered 100%, and all viability values were calculated using the formula below. The experiment was performed in 3 replicates. [drawing 2]
(In general: Tetrazolium assays rely on reduction of a dye to a coloured formazan, in cell work by metabolically active cells.)

Data set [2] relates to A549 lung cancer cell line. Nature of the data set: MTT cytotoxicity assay on A549 lung cancer cells. The settings on record: Homo sapiens; A549 cells, MTT, mean ± SD. The format is cell-based, human. The procedure: as §1, §2, §3, §4
For data set [3], the system named is A549 cells. The experiment in a line: Annexin V-FITC/propidium iodide apoptosis detection by flow cytometry. Type of data set: cell-based, human. To be noted: IC50 dose, 24 h. As for the experimental part: To determine whether the antiproliferative effects of the compounds on the A549 cell line proceed through the apoptotic or necrotic pathway, the assay was performed with Annexin V-FITC/propidium iodide dyes in a flow cytometry device. […] At least 10,000 cells were analyzed, and quadrant analysis was performed. The results are presented as early apoptotic cells, late apoptotic cells, viable cells, and necrotic cells in Table 3, and as a diagram in Figure 1. In control cells, the number of viable cells was 92.04%, necrotic cells were 1.16%, early apoptotic cells were 3.43%, and late apoptotic cells were 3.28%. […] Among the compounds, 2m was the most apoptosis-inducing compound, with 14.99% early apoptotic and 10.63% late apoptotic cell percentages. […] This compound was followed by compound 2c with a 13.79% early apoptotic cells and 4.03% late apoptotic cells. Among the compounds, compound 2o induced early apoptosis the least (1.87%) and necrosis the most (3.10%). […] Nonapoptotic cell death methods, such as necroptosis and pyroptosis, can be considered for the aforementioned compounds.
The compounds were treated with A549 cells at IC50 doses, and early and late apoptosis, necrosis, and viable cell ratios were determined as percentages. Cells were seeded at 37 °C in humidified air containing 5% CO2 with 10^5 cells/plate in each well. A549 cells were collected, washed twice with ice-cold PBS, and resuspended in 100 μL of binding buffer. Five μL (5 μg/mL) of Annexin V-FITC and PI were added to the cells and incubated for 15 min in the dark at room temperature (20–25 °C). Then, 400 μL of binding buffer was added to the mixture samples and analyzed on a flow cytometer. Quadrant analyses were also presented.[41] Compounds 2a, 2b, 2c, 2j, 2m, and 2o, with a satisfactory cytotoxic profile, were examined via flow cytometry to assess the apoptosis/necrosis cell ratio using previously published procedures.[42]
(§5) The apoptotic results (Annexin V-FITC, Caspase 3, JC-1) were evaluated by flow cytometry using FACS Diva Version 6.1.1. software, and the apoptotic cells were determined as the percentage of cells.
Background: A flow cytometer gives signals particle by particle.

In a further data set the test system is caspase-3 in A549 cells. Nature of the data set: Caspase-3 activation. The format is cell-based, human. To be noted: 24 h.
Source text: Caspases can take part in the cell death mechanism through both intrinsic and extrinsic pathways, with caspase-3 being the first enzyme activated in the apoptosis process.[24] Activation of the caspase-3 enzyme by the compounds, indicated as caspase-3 positive, and inhibition, indicated as caspase-3 negative, are presented in percentage terms in Table 5.
A Spectrofluorometric Caspase-3 assay kit (BD Pharmingen, Franklin Lakes, NJ) was used for determining Caspase-3 activation by measuring the caspase-3 or DEVD-cleaving activity. Initially, A549 cells at a concentration of 1 × 10^6 cells/mL underwent a washing process using phosphate-buffered saline (PBS). Subsequently, they were suspended in a cold solution known as cell lysis buffer and kept on ice for a duration of 30 min. […] In each reaction, a mixture of […] of diluted Ac DEVD-AMC (a synthetic tetrapeptide fluorogenic substrate used to measure caspase-3 activity) and 0.2 mL of 1x HEPES buffer was added to a well. Then, […] of cell lysate was introduced into each well/reaction. The reaction mixtures were incubated at 37 °C for 1 h. The amount of AMC released from Ac-DEVD-AMC was measured by using a microplate reader (PerkinElmer/Victor/X3) with an excitation wavelength of 380 nm and an emission wavelength of 460 nm. Apoptotic cell lysates containing active caspase-3 produced significant emissions compared to controls. In addition, the AMC emission of nonapoptotic control cell lysates was taken as 100%, and the emission of other cell lysates was measured relative to the emission of control cells. All experiments were repeated in duplicate. Active compounds, which are the most cytotoxic compounds, were evaluated for caspase-3 activation using previously published procedures.[40],[44]
as §5

The next data set deals with T1, MMP-9 enzyme (Homo sapiens, UniProt P14780).
T1 construct: purchased Enzo Life Sciences Inc. (Farmingdale, NY, USA)
The experiment in a line: MMP-9 enzyme inhibition, colorimetric kit. Type of data set: biochemical. To be noted: compounds at 100 μM, mean ± SD. As for the experimental part:
Compounds (2a–2o) were tested to determine their MMP-9 enzyme inhibition potential. The compounds were tested at a concentration of 100 μM, and the standard molecule NNGH at a concentration of 1.3 μM.
MMP-9 inhibition was assessed using a colorimetric kit from Enzo Life Sciences Inc. (Farmingdale, NY, USA), following procedures similar to those described in previous studies.[25],[26] A thiopeptide was used as a chromogenic substrate (Ac-PLG-[2-mercapto-4-methyl-pentanoyl]-LG-OC2H5). 2-Nitro-5-thiobenzoic acid, formed by the reaction of the sulfhydryl group produced as a result of hydrolysis of the thioester by the MMP-9 enzyme and then reaction with DTNB [5,5′-dithiobis(2-nitrobenzoic acid), Ellman’s reagent], gives absorbance at 412 nm in a microplate reader (BioTek, PowerWave, Gen5 software, Winooski, VT, USA). Based on these absorptions, MMP-9 inhibition concentrations were determined. The assays were performed in triplicate. NNGH (N-isobutyl-N-(4-methoxyphenylsulfonyl)glycyl hydroxamic acid) was used as a control inhibitor. Data were shown as mean ± SD. The inhibitor % remaining activity of MMPs was calculated using the following equation:
Inhibitor% activity remaining = (V inhibitor/V control) × 100.
The inhibition (percent) of MMPs was calculated using the following equation: [drawing 1]

Data set [4] has as its system A549 cells. The experiment in a line: Mitochondrial membrane potential (JC-1) by flow cytometry. Type of data set: cell-based, human. The settings on record: IC50 dose, JC-1.
Source text: The mitochondrial membrane potential provides information about the state of electrons during ATP production through oxidative phosphorylation, which is essential for cellular viability. Mitochondrial dysfunction occurs when this electrical regulation is disturbed and can occur in various diseases and the process of apoptosis.[23] […] Compounds 2m, 2g, and 2c followed this, with depolarization levels exceeding 21%. The mitochondrial dysfunction in compound 2m can be considered a contributing factor to apoptosis.
Cell staining with JC-1 was performed according to the manufacturer’s recommendations for the BD , Pharmingen Flow Cytometry Kit. […] Compounds were applied at IC50 doses of no more than 1 × 10^6/mL per well in 6-well plates. After treatment, each cell suspension was transferred to a 15 mL polystyrene centrifuge tube, the cells were centrifuged at 400g for 5 min, and the supernatant was removed. 0.5 mL of freshly prepared working solution was added to each pellet, and the solution was vortexed. The test cells were soaked in JC-1 working solution at 37 °C for 10–15 min, and the cells were washed twice. After centrifugation at 400g for 5 min, each cell pellet was suspended in 0.5 mL of 1X assay buffer and vortexed. The cells were then analyzed by flow cytometer.
as §5

Each structure is given as a SMILES string. Values after ≈ are worked out from the molar mass of the structure shown.

T1 sequence (P14780 107-444 limits assumed): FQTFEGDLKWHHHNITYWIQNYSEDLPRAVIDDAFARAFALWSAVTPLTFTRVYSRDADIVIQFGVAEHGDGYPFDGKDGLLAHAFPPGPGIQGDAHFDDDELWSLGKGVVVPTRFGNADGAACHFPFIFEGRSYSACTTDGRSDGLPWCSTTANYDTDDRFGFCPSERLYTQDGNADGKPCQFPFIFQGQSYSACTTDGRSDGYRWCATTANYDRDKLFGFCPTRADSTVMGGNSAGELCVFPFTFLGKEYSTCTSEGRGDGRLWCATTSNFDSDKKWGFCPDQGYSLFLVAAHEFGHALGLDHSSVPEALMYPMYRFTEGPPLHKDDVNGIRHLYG

The molecule `CS(=O)(=O)c1ccc(-c2csc(NN=Cc3cccnc3)n2)cc1` [Compound 2g, 4-(4-(Methylsulfonyl)phenyl)-2-(2-(pyridin-3-ylmethylene)hydrazinyl)thiazole] came in with an IC50 in data set [1] of 56.4 ± 0.59 µg/mL (≈ 157 µM). Also, the half-inhibitory concentration (IC50) in data set [2] was determined as 8.4 ± 0.34 µg/mL (≈ 23.4 µM). Also, in the data set with A549 cells [3], the Q1-LL viable cells is given as 88.98%, the “Q1-LR early apoptotic cells” value was 7.20%, the Q1-UL necrotic cells stood at 0.98% and the “Q1-UR late apoptotic cells” value amounted to 2.84%. In the data set with caspase-3 in A549 cells, the “% Caspase-3 negative cells” value was found to be 73.16% and the “% Caspase-3 positive cells” value is recorded as 0.38%. On MMP-9 enzyme, the inhibition at 100 µM worked out at 8.63 ± 1.32%. In addition, the “% Mitochondrial membrane polarized cells” value with A549 cells [4] worked out at 76.68%.

Regarding `C(=NNc1nc(-c2ccc(-c3ccccc3)cc2)cs1)c1ccncc1` [Compound 2m, 4-([1,1’-Biphenyl]-4-Yl)-2-(2-(pyridin-4-ylmethylene)hydrazinyl)thiazole], the half-maximal inhibitory concentration (IC50) in data set [1] turned out to be 31.2 ± 0.55 µg/mL (≈ 87.7 µM). In data set [2], this molecule showed a 50% inhibitory concentration (IC50) of 12.1 ± 0.43 µg/mL (≈ 33.8 µM). In the data set on A549 cells [3], the Q1-LL viable cells amounted to 73.32%, the “Q1-LR early apoptotic cells” value stood at 14.99%, the Q1-UL necrotic cells was found to be 1.07% and the “Q1-UR late apoptotic cells” value was determined as 10.63%. In the data set with caspase-3 in A549 cells, the “% Caspase-3 negative cells” value was determined as 69.82% and the “% Caspase-3 positive cells” value stood at 0.86%. The same molecule displayed an inhibition at 100 µM against MMP-9 enzyme of 9.4 ± 1.22%. Moreover, the “% Mitochondrial membrane polarized cells” value in the data set with A549 cells [4] came out at 75.72%.

The molecule `C(=NNc1nc(-c2ccc(-c3ccccc3)cc2)cs1)c1ccccn1` [Compound 2c, 4-([1,1’-Biphenyl]-4-yl)-2-(2-(pyridin-2-ylmethylene)hydrazinyl)thiazole] showed a half-inhibitory concentration (IC50) in data set [1] of 125 ± 0.64 µg/mL (≈ 351 µM). This molecule also came in with an IC50 in data set [2] of 10.1 ± 0.38 µg/mL (≈ 28.4 µM). In addition, in the data set on A549 cells [3], the Q1-LL viable cells is given as 81.54%, the “Q1-LR early apoptotic cells” value is reported as 13.79%, the Q1-UL necrotic cells stood at 0.64% and the “Q1-UR late apoptotic cells” value is 4.03%. Moreover, in the data set with caspase-3 in A549 cells, the “% Caspase-3 negative cells” value came out at 91.76% and the “% Caspase-3 positive cells” value was 5.95%. Further, the inhibition at 100 µM on MMP-9 enzyme is 23.1 ± 2.08%. In addition, the “% Mitochondrial membrane polarized cells” value in the data set with A549 cells [4] is 79.61%.

In general, IC50 refers to the concentration that gives 50% inhibition. High values mean a need for much substance, low ones inhibition by little substance. The inhibition is the relative decrease from the control value, in per cent. The low end stands for little suppression, the high end for strong suppression.
